What follows are compounds tested against ROCK2 (Homo sapiens (Human), UniProt O75116) (assay: ROCK assay (Caliper LABCHIP peptide phosphorylation)). Conditions: 5 μM ATP, 1.5 μM peptide substrate.
Chain of ROCK2 (O75116 whole entry, species assumed): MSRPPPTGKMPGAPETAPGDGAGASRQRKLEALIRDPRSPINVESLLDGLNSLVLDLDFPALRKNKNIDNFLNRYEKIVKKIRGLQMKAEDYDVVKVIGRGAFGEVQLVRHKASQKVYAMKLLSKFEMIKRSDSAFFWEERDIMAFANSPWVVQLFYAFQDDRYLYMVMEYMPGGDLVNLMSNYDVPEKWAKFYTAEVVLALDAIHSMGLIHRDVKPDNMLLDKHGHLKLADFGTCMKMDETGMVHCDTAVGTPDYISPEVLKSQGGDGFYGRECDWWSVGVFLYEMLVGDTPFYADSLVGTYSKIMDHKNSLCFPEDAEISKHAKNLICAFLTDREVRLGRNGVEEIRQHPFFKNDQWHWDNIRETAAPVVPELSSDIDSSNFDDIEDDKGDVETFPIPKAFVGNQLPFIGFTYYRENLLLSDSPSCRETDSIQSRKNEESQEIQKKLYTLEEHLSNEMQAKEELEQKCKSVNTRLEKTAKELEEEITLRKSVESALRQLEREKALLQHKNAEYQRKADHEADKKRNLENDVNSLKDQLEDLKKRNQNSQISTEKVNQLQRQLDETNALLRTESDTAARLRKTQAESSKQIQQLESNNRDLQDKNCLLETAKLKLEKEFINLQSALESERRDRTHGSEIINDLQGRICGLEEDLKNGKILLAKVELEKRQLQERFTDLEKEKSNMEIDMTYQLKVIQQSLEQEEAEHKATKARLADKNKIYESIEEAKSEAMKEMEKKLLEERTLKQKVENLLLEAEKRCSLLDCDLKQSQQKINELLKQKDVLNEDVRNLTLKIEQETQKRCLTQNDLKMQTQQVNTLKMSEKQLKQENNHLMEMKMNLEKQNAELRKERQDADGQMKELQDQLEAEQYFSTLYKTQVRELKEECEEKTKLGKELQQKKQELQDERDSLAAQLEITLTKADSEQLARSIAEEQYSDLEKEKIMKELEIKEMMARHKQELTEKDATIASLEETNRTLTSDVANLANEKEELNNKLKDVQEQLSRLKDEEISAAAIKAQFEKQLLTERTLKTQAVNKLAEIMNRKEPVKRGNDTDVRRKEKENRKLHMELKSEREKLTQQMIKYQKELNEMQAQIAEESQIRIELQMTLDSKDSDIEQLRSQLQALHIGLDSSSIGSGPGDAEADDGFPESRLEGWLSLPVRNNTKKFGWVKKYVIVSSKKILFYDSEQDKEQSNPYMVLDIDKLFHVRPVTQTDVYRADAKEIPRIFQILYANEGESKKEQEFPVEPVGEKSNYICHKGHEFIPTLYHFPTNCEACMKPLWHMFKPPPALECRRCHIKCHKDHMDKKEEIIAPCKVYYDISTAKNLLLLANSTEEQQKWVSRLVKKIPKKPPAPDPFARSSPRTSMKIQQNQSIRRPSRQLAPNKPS
Format: biochemical
Protocol: The effectiveness of compounds of the present invention as ROCK inhibitors can be determined in a 30 μL assay containing 20 mM HEPES, pH 7.5, 20 mM MgCl2, 0.015% Brij-35, 4 mM DTT, 5 μM ATP and 1.5 μM peptide substrate (FITC-AHA-AKRRRLSSLRA-OH) (SEQ ID No. 1). Compounds were dissolved in DMSO so that the final concentration of DMSO was <2%, and the reaction was initiated with Rho kinase variants. After incubation, the reaction was terminated by the addition of EDTA and the phosphorylated and non-phosphorylated peptides separated using a LABCHIP® 3000 Reader (Caliper Life Sciences). […] Compounds were tested in dose-response format, and the inhibition of kinase activity was calculated at each concentration of compound. The inhibition data were fit using a curve-fitting program to determine the IC50; i.e., the concentration of compound required to inhibit 50% of kinase activity. Representative Examples were tested in the ROCK assay described above and found having ROCK inhibitory activity. A range of ROCK inhibitory activity (IC50 values) of ≤50 μM (50000 nM) was observed. Table A below lists the ROCK IC50 values measured for the following examples.
For “2-((((R)-6-(4-((1-adamantyl)methyl)-2,5-dioxoimidazolidin-1-yl)spiro[3.3]heptan-2-yl)oxy)nicotinamide [Example 68]”, the IC50 was 17 nM.
For `NC(=O)c1cccnc1O[C@H]1C[C@]2(C1)C[C@H](N1C(=O)NC(CC3CCCCC3)C1=O)C2` (single isomer, unassigned) [Example 2, 2-{[(αR)-6-[4-(cyclohexyl-methyl)-2,5-dioxoimidazol-idin-1-yl]spiro-[3.3]heptan-2-yl]-oxy}pyridine-3-carboxamide], the IC50 was 8 nM.
In the case of `NC(=O)c1cccnc1O[C@H]1C[C@]2(C1)C[C@H](N1C(=O)NC(CCc3ccccc3)C1=O)C2` (single isomer, unassigned) [Example 5, 2-{[(αR)-6-[2,5-dioxo-4-(2-phenylethyl)-imidazolidin-1-yl]spiro[3.3]-heptan-2-yl]oxy}-pyridine-3-carboxamide], the IC50 is reported as 25 nM.
`NC(=O)c1cccnc1O[C@H]1C[C@]2(C1)C[C@H](N1C(=O)NC(CC3CCCCC3)C1=O)C2` (single isomer, unassigned) [Example 6, 2-{[(αR)-6-(4-cyclohexylmethyl-2,5-dioxoimidazol-idin-1-yl)spiro-[3.3]heptan-2-yl]-oxy}pyridine-3-carboxamide] was tested, and the IC50 was 91 nM.
`NC(=O)c1cccnc1O[C@H]1C[C@]2(C1)C[C@H](N1C(=O)NC(CCc3ccccc3)C1=O)C2` (single isomer, unassigned) [Example 12, 2-{[(αR)-6-(4-(2-phenylethyl)-2,5-dioxoimidazol-idin-1-yl)spiro-[3.3]heptan-2-yl]oxy}pyridine-3-carboxamide] gave an IC50 of 270 nM.
`CC(C)(C)OC(=O)NCCC1NC(=O)N([C@H]2C[C@@]3(C[C@H](Oc4ncccc4C(N)=O)C3)C2)C1=O` (single isomer, unassigned) [Example 20, tert-butyl N-(2-{2,5-dioxo-1-[(αR)-6-[(3-carbamoylpyridin-2-yl)oxy]spiro-[3.3]heptan-2-yl]-imidazolidin-4-yl}ethyl)carbamate] gave an IC50 of 1710 nM.
For `CC(C)(C)OC(=O)NCCC1NC(=O)N([C@H]2C[C@@]3(C[C@H](Oc4ncccc4C(N)=O)C3)C2)C1=O` (single isomer, unassigned) [Example 21, tert-butyl N-(2-{2,5-dioxo-1-[(αR)-6-[(3-carbamoylpyridin-2-yl)oxy]spiro-[3.3]heptan-2-yl]-imidazolidin-4-yl}ethyl)carbamate], the IC50 was 2380 nM.
Work on `CCC(CC)CC1NC(=O)N([C@H]2C[C@@]3(C[C@H](Oc4ncccc4C(N)=O)C3)C2)C1=O` (single isomer, unassigned) [Example 38, 2-{[(αR)-6-(4-(2-ethylbutyl)-2,5-dioxoimidazolidin-1-yl]spiro[3.3]-heptan-2-yl]oxy}-pyridine-3-carbox-amide] yielded an IC50 of 5 nM.
In the case of `NC(=O)c1cccnc1O[C@H]1C[C@]2(C1)C[C@H](N1C(=O)NC(CC3CCCC3)C1=O)C2` (single isomer, unassigned) [Example 40, 2-{[(αR)-6-[4-(cyclopentyl-methyl)-2,5-dioxo-imidazolidin-1-yl]-spiro[3.3]heptan-2-yl]oxy}pyridine-3-carboxamide], the IC50 is reported as 14 nM.
For `NC(=O)c1cccnc1O[C@H]1C[C@]2(C1)C[C@H](N1C(=O)NC(CCCC(F)(F)F)C1=O)C2` (single isomer, unassigned) [Example 42, 2-{[(αR)-6-[2,5-dioxo-4-(4,4,4-trifluorobutyl)-imidazolidin-1-yl]-spiro[3.3]heptan-2-yl]oxy}pyridine-3-carboxamide], the IC50 was 22 nM.
Work on `NC(=O)c1cccnc1O[C@H]1C[C@]2(C1)C[C@H](N1C(=O)NC(CCC3CCCCCC3)C1=O)C2` (single isomer, unassigned) [Example 43, 2-{[(αR)-6-[4-(2-cycloheptylethyl)-2,5-dioxoimidazol-idin-1-yl]spiro-[3.3]heptan-2-yl]-oxy}pyridine-3-carboxamide] yielded an IC50 of 23 nM.
For `NC(=O)c1cccnc1O[C@H]1C[C@]2(C1)C[C@H](N1C(=O)NC(CC(C(F)(F)F)C(F)(F)F)C1=O)C2` (single isomer, unassigned) [Example 47], the IC50 was 50 nM.
`CCC(CC)CC1NC(=O)N([C@H]2C[C@@]3(C[C@H](Oc4ncccc4C(N)=O)C3)C2)C1=O` (single isomer, unassigned) [Example 48, 2-{[(αR)-6-[4-(2-ethylbutyl)-2,5-dioxoimidazolidin-1-yl]spiro[3.3]-heptan-2-yl]oxy}-pyridine-3-carbox-amide] gave an IC50 of 56 nM.
In the case of `NC(=O)c1cccnc1O[C@H]1C[C@]2(C1)C[C@H](N1C(=O)NC(CCOCC(F)(F)F)C1=O)C2` (single isomer, unassigned) [Example 50, 2-{[(αR)-6-{2,5-dioxo-4-[2-(2,2,2-trifluoroethoxy)-ethyl]imidazolidin-3-yl}spiro[3.3]-heptan-2-yl]oxy}-pyridine-3-carbox-amide], the IC50 is reported as 62 nM.
For `NC(=O)c1cccnc1O[C@H]1C[C@]2(C1)C[C@H](N1C(=O)NC(CC3CCCC3)C1=O)C2` (single isomer, unassigned) [Example 52], the IC50 was 160 nM.
Work on `NC(=O)c1cccnc1O[C@H]1C[C@]2(C1)C[C@H](N1C(=O)NC(CCC3CCCCCC3)C1=O)C2` (single isomer, unassigned) [Example 53, 2-{[(αR)-6-[4-(2-cycloheptylethyl)-2,5-dioxoimidazol-idin-1-yl]spiro-[3.3]-heptan-2-yl]-oxy}pyridine-3-carboxamide] yielded an IC50 of 171 nM.
In the case of `NC(=O)c1cccnc1O[C@H]1C[C@]2(C1)C[C@H](N1C(=O)NC(CC3CCCO3)C1=O)C2` (single isomer, unassigned) [Example 55], the IC50 is reported as 212 nM.
`NC(=O)c1cccnc1O[C@H]1C[C@]2(C1)C[C@H](N1C(=O)NC(CC(C(F)(F)F)C(F)(F)F)C1=O)C2` (single isomer, unassigned) [Example 56, 2-{[(αR)-6-{2,5-dioxo-4-[3,3,3-trifluoro-2-(trifluoromethyl)-propyl]imidazol-idin-1-yl}spiro-[3.3]heptan-2-yl]-oxy}pyridine-3-carboxamide] gave an IC50 of 256 nM.
In the case of `NC(=O)c1cccnc1O[C@H]1C[C@]2(C1)C[C@H](N1C(=O)NC(CCOC(F)(F)F)C1=O)C2` (single isomer, unassigned) [Example 57, 2-{[(αR)-6-{2,5-dioxo-4-[2-(tri-fluoromethoxy)-ethyl]imidazolidin-1-yl}spiro[3.3]-heptan-2-yl]oxy}-pyridine-3-carbox-amide], the IC50 is reported as 259 nM.
Work on `NC(=O)c1cccnc1O[C@H]1C[C@]2(C1)C[C@H](N1C(=O)NC(CCOC(F)(F)F)C1=O)C2` (single isomer, unassigned) [Example 59, 2-{[(αR)-6-{2,5-dioxo-4-[2-(trifluoromethoxy)-ethyl]imidazolidin-1-yl}spiro[3.3]-heptan-2-yl]oxy}-pyridine-3-carbox-amide] yielded an IC50 of 303 nM.
`NC(=O)c1cccnc1O[C@H]1C[C@]2(C1)C[C@H](N1C(=O)NC(CCCC(F)(F)F)C1=O)C2` (single isomer, unassigned) [Example 60, 2-{[(αR)-6-[2,5-dioxo-4-(4,4,4-trifluorobutyl)-imidazolidin-1-yl]-spiro[3.3]heptan-2-yl]oxy}pyridine-3-carboxamide] gave an IC50 of 311 nM.
Compound `NC(=O)c1cccnc1O[C@H]1C[C@]2(C1)C[C@H](N1C(=O)NC(CCOCC(F)(F)F)C1=O)C2` (single isomer, unassigned) [Example 61] has an IC50 of 378 nM.
Work on `NC(=O)c1cccnc1O[C@H]1C[C@]2(C1)C[C@H](N1C(=O)NC(CC3CCCO3)C1=O)C2` (single isomer, unassigned) [Example 64, 2-{[(αR)-6-{2,5-dioxo-4-[(oxolan-2-yl)methyl]-imidazolidin-1-yl}-spiro[3.3]heptan-2-yl]oxy}pyridine-3-carboxamide] yielded an IC50 of 802 nM.
With `[H][C@]1(Oc2ncccc2C(N)=O)C[C@]2(C[C@@H](N3C(=O)N[C@@H](CC(C)C)C3=O)C2)C1` (stereo partly drawn) [Example 1] the IC50 was 8 nM.
`NC(=O)c1cccnc1OC1CC2(C1)CC(N1C(=O)CN(c3ccccc3)C1=O)C2` (stereo not drawn) [Example 3, 2-{[6-(2,5-dioxo-3-phenylimidazol-idin-1-yl)spiro-[3.3]heptan-2-yl]-oxy}pyridine-3-carboxamide] was tested, and the IC50 was 9 nM.
With `CC(C)(C)C1NC(=O)N([C@H]2C[C@@]3(C[C@H](Oc4ncccc4C(N)=O)C3)C2)C1=O` (stereo partly drawn) [Example 7, 2-{[(αR)-6-(4-tert-butyl-2,5-dioxo-imidazolidin-1-yl)spiro[3.3]-heptan-2-yl]oxy}-pyridine-3-carbox-amide] the IC50 was 129 nM.
`NC(=O)c1cccnc1O[C@H]1C[C@]2(C1)C[C@H](N1C(=O)NC3(CCCC3)C1=O)C2` (stereo partly drawn) [Example 8, 2-{[(αR)-6-{2,4-dioxo-1,3-diaza-spiro[4.4]nonan-3-yl}spiro[3.3]-heptan-2-yl]oxy}-pyridme-3-carbox-amide] was tested, and the IC50 was 190 nM.
With `CC(C)(C)OCC1NC(=O)N([C@H]2C[C@@]3(C[C@H](Oc4ncccc4C(N)=O)C3)C2)C1=O` (stereo partly drawn) [Example 9, 2-{[(αR)-6-(4-tert-butoxymethyl-2,5-dioxoimidazolidin-1-yl)spiro[3.3]-heptan-2-yl]oxy}-pyridine-3-carbox-amide] the IC50 was 219 nM.
In the case of `NC(=O)c1cccnc1OC1CC2(C1)CC(N1C(=O)CN(Cc3ccccc3)C1=O)C2` (stereo not drawn) [Example 10, 2-{[6-(3-benzyl-2,5-dioxoimidazol-idin-1-yl)spiro-[3.3]heptan-2-yl]-oxy}pyridine-3-carboxamide], the IC50 is reported as 224 nM.
Work on `NC(=O)c1cccnc1O[C@H]1C[C@]2(C1)C[C@H](N1C(=O)CN(CCc3ccccc3)C1=O)C2` (stereo partly drawn) [Example 11] yielded an IC50 of 225 nM.

— US11447487B2, “Spiroheptanyl hydantoins as rock inhibitors” (BRISTOL-MYERS SQUIBB COMPANY, priority 2017, dated 2022)
